Results taken from ChEMBL document CHEMBL5137085, “GNE-064: A Potent, Selective, and Orally Bioavailable Chemical Probe for the Bromodomains of SMARCA2 and SMARCA4 and the Fifth Bromodomain of PBRM1” (J Med Chem, 2022).
≈ marks a conversion by molar mass, not a printed value.

Assays:
[1] = Kinetic solubility of compound; type: physicochemical; conditions: read-out: Kinetic_solubility
[2] = Lipophilicity, LogD of compound; type: physicochemical; conditions: octanol/water
[3] = target: Bromodomain-containing protein 4 (Homo sapiens, UniProt O60885); experiment: Inhibition of BRD4 bromodomain 1 (unknown origin) by TR-FRET assay
[4] = target: T1, SWI/SNF-related matrix-associated actin-dependent regulator of chromatin subfamily A member 4 (Homo sapiens, UniProt P51532)
[5] = target: T1, SWI/SNF-related matrix-associated actin-dependent regulator of chromatin subfamily A member 4; experiment: Binding affinity to His6/FLAG-tagged SMARCA4 (unknown origin) by isothermal titration calorimetric assay
Protein polybromo-1 [6] = target: T2, Protein polybromo-1 (Homo sapiens, UniProt Q86U86); experiment: Inhibition of PBRM1 bromodomain 5 (unknown origin) by TR-FRET assay
Protein polybromo-1 [7] = target: T2, Protein polybromo-1; experiment: Binding affinity to human PBRM1 bromodomain 5 (S645 to D766 residues) expressed in bacterial expression system by bromoscan assay
[8] = target: T3, SWI/SNF-related matrix-associated actin-dependent regulator of chromatin subfamily A member 2 (Homo sapiens, UniProt P51531); experiment: Binding affinity to human SMARCA2 (S1337 to Q1486 residues) expressed in bacterial expression system by bromoscan assay
Protein polybromo-1 [9] = target: T2, Protein polybromo-1; experiment: Binding affinity to human PBRM1 bromodomain 2 (S178 to E291 residues) expressed in bacterial expression system by bromoscan assay
[10] = target: T1, SWI/SNF-related matrix-associated actin-dependent regulator of chromatin subfamily A member 4; experiment: Binding affinity to human SMARCA4 (A1448 to S1575 residues) expressed in bacterial expression system by bromoscan assay
[11] = target: T3, SWI/SNF-related matrix-associated actin-dependent regulator of chromatin subfamily A member 2; experiment: Inhibition of SMARCA2 (unknown origin) by TR-FRET assay
[12] = Protein binding in mouse plasma; type: ADME, cell-free; conditions: read-out: PPB (converted)
Cytochrome P450 2D6 = Cytochrome P450 2D6 (Homo sapiens, UniProt P10635); experiment: Inhibition of CYP2D6 (unknown origin); type: ADME
Cytochrome P450 3A4 = Cytochrome P450 3A4 (Homo sapiens, UniProt P08684); experiment: Inhibition of CYP3A4 (unknown origin); type: ADME
Cytochrome P450 2C9 = Cytochrome P450 2C9 (Homo sapiens, UniProt P11712); experiment: Inhibition of CYP2C9 (unknown origin); type: ADME
Cytochrome P450 2C8 = target: T4, Cytochrome P450 2C8 (Homo sapiens, UniProt P10632); experiment: Inhibition of CYP2C8 (unknown origin); type: ADME
T4 sequence (P10632 whole entry): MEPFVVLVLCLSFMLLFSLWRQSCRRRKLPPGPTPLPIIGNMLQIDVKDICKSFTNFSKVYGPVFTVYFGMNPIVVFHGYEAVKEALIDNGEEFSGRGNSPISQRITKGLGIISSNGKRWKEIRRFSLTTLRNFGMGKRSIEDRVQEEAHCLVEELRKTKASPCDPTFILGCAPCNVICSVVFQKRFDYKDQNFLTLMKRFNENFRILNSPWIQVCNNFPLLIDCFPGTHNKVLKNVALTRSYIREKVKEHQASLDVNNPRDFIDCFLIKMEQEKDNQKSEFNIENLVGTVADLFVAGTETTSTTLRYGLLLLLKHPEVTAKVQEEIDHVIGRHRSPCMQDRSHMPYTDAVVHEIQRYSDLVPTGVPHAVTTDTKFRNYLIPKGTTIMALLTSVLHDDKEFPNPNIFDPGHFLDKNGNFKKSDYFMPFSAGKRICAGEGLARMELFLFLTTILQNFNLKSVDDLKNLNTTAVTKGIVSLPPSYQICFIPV

[13] = Tmax in CD-1 mouse at 1 mg/kg, po; type: ADME, organism-based; conditions: in vivo
Cytochrome P450 1A2 = target: T5, Cytochrome P450 1A2 (Homo sapiens, UniProt P05177); experiment: Inhibition of CYP1A2 (unknown origin); type: ADME
T5 sequence (P05177 whole entry): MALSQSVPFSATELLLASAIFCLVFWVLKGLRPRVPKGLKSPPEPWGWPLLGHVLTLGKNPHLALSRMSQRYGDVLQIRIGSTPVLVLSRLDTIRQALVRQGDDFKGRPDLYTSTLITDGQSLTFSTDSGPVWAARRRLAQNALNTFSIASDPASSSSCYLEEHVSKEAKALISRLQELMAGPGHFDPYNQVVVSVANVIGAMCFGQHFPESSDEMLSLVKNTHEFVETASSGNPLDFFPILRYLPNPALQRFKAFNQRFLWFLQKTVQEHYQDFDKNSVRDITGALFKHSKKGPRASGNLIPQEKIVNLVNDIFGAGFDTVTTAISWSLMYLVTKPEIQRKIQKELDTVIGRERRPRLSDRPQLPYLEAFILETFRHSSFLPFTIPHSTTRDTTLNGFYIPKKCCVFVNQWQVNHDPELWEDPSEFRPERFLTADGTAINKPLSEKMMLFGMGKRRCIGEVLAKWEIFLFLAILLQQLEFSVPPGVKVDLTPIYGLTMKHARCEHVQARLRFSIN

[14] = Clearance in CD-1 mouse at 0.5 mg/kg, iv; type: ADME, organism-based; conditions: in vivo
[15] = Fraction unbound in CD-1 mouse at 1 mg/kg, po; type: ADME, organism-based; conditions: in vivo
[16] = Unbound clearance in CD-1 mouse at 0.5 mg/kg, iv; type: ADME, organism-based; conditions: in vivo
[17] = Unbound volume of distribution at steady state in CD-1 mouse at 0.5 mg/kg, iv; type: ADME, organism-based; conditions: in vivo
[18] = Protein binding in rat plasma; type: ADME, cell-free; conditions: read-out: PPB (converted)
[19] = Cmax in CD-1 mouse at 1 mg/kg, po; type: ADME, organism-based; set-up: dose 1 mg/kg, route po; conditions: in vivo
[20] = Oral bioavailability in CD-1 mouse at 1 mg/kg; type: ADME, organism-based; conditions: in vivo
[21] = Volume of distribution at steady state in CD-1 mouse at 0.5 mg/kg, iv; type: ADME, organism-based; conditions: in vivo, read-out: Vdss
Cytochrome P450 2C19 = Cytochrome P450 2C19 (Homo sapiens, UniProt P33261); experiment: Inhibition of CYP2C19 (unknown origin); type: ADME
[22] = Half life in CD-1 mouse at 0.5 mg/kg, iv; type: ADME, organism-based; conditions: in vivo
[23] = Protein binding in human plasma; type: ADME, cell-free; conditions: read-out: PPB (converted)

T2 sequence (Q86U86 whole entry, the tested form may be a part): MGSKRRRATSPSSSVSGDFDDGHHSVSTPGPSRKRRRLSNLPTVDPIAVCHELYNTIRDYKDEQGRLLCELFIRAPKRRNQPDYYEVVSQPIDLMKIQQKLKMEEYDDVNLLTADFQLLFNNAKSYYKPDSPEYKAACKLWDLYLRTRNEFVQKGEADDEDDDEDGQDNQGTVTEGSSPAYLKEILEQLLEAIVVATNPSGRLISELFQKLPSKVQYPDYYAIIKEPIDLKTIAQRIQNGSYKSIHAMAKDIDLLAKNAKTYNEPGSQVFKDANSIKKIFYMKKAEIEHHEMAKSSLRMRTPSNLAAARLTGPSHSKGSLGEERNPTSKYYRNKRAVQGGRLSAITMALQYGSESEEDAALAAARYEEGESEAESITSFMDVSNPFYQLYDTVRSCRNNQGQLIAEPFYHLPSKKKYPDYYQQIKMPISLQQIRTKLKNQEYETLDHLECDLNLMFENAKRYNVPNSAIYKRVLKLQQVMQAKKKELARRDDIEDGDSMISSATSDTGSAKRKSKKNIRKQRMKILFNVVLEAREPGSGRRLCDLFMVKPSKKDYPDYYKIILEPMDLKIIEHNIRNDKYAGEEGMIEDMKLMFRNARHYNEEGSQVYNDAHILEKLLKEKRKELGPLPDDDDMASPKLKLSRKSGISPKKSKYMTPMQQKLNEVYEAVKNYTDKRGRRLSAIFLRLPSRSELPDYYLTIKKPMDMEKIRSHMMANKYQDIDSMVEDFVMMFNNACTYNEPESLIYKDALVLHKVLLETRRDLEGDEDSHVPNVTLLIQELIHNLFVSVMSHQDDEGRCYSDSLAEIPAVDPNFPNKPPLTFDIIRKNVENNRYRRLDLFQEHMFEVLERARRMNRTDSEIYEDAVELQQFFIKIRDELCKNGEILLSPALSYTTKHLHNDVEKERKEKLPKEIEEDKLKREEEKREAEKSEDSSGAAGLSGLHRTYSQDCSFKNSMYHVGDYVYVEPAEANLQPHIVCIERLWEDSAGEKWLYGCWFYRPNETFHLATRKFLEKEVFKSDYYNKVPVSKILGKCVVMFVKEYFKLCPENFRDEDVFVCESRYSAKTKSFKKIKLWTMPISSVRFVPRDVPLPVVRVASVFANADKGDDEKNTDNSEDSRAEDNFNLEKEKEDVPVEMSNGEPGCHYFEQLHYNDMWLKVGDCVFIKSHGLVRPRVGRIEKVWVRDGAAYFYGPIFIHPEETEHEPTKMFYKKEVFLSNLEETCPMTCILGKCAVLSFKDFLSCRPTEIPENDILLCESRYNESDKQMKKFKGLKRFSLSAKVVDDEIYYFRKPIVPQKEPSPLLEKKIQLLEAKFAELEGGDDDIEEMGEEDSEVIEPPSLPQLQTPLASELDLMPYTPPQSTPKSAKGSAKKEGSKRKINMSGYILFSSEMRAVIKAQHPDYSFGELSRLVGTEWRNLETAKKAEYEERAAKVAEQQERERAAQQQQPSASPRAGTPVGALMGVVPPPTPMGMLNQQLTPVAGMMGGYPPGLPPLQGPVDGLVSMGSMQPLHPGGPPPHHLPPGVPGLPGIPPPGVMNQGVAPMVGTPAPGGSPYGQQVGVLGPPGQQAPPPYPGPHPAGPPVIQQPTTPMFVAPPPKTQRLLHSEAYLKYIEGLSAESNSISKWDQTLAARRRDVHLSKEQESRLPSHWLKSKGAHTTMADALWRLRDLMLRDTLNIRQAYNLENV
T3 sequence (P51531 whole entry, the tested form may be a part): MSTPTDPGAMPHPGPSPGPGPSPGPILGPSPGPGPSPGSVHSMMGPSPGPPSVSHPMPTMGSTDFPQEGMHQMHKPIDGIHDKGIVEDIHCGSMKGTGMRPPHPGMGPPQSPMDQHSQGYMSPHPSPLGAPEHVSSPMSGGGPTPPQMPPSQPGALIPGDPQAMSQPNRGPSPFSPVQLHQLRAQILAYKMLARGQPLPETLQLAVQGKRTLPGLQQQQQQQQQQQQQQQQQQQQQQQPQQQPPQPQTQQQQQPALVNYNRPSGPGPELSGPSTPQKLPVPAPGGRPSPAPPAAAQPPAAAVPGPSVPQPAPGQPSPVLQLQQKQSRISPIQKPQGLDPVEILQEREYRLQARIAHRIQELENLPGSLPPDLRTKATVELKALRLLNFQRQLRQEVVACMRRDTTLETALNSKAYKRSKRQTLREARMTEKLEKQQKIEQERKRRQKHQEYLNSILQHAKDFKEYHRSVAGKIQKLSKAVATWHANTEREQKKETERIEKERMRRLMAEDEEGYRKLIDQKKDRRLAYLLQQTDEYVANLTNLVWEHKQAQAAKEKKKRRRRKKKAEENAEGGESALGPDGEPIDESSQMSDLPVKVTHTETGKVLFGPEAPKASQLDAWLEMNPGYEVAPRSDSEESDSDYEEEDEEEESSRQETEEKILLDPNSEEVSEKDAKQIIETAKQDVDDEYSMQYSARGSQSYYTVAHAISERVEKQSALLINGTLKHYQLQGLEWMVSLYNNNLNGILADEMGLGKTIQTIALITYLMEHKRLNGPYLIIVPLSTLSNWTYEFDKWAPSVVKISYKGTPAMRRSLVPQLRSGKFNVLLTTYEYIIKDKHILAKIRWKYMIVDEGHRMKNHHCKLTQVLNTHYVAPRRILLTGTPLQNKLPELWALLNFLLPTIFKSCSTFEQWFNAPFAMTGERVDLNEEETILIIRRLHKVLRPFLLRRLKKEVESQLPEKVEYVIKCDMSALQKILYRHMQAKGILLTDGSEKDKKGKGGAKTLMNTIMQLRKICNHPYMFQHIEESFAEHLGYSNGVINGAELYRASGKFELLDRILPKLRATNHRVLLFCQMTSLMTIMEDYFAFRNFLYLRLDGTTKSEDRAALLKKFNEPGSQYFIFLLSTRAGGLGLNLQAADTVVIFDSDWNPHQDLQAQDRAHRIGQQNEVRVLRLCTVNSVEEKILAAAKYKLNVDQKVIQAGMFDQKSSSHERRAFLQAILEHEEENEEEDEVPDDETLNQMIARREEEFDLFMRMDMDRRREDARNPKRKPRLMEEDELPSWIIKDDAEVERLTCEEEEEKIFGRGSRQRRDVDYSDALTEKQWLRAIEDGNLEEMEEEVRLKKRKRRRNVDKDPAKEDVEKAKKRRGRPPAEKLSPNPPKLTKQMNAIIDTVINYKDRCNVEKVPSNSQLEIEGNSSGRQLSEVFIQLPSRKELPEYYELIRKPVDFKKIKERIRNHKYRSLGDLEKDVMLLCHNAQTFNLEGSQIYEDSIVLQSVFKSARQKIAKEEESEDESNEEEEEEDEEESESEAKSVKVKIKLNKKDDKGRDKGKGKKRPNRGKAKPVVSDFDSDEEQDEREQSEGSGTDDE
T1 sequence (P51532 whole entry): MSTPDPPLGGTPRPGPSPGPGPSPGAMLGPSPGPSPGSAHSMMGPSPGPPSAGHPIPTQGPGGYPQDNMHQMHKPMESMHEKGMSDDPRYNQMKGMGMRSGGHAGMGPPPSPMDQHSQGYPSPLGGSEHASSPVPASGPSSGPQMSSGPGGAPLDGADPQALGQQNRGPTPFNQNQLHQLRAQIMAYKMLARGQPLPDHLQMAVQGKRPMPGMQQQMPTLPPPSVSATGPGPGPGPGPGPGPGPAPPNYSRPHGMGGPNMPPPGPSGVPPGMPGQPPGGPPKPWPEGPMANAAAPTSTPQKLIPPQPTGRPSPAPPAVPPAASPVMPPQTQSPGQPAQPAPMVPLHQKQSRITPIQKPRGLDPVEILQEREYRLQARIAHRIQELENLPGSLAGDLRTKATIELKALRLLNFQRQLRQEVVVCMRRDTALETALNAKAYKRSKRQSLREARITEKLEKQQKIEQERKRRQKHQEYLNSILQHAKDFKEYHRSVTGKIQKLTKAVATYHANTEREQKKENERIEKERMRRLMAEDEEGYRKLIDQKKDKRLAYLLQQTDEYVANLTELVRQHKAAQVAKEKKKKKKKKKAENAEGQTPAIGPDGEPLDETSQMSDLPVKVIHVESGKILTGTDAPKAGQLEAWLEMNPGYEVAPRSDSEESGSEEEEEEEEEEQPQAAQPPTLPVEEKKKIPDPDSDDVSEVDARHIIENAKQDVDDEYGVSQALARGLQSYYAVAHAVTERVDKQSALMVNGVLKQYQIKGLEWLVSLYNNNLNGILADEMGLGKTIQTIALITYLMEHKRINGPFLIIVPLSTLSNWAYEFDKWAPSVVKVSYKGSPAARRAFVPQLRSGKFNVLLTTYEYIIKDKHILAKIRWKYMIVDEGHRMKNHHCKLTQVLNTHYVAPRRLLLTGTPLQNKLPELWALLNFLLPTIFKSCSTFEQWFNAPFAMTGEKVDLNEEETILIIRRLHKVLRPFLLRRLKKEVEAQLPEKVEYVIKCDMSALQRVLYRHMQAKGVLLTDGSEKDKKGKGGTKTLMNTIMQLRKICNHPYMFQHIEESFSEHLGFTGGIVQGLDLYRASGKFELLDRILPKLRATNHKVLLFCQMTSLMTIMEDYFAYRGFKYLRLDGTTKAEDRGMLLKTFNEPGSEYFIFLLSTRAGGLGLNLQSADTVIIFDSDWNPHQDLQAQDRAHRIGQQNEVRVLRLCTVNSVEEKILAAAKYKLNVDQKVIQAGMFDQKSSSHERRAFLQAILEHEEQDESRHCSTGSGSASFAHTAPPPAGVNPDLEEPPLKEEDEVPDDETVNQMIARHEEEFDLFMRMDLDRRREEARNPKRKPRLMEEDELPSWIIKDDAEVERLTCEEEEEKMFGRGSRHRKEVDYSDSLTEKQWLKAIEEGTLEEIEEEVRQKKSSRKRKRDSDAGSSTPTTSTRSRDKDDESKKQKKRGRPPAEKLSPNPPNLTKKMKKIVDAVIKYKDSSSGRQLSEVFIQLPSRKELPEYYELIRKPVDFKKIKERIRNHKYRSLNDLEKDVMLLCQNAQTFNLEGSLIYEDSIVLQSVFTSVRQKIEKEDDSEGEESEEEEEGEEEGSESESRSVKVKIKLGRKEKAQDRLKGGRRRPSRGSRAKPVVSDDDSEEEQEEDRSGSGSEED

Nc1nnc(-c2ccccc2O)cc1-c1ccccc1
solubility kinetic [1]: 11 µM (≈ 2.9 µg/mL) | logD [2]: 3.3 | IC50 [3]: 27 µM

Nc1nnc2c([nH]c3ccccc32)c1-c1ccccc1
IC50 [4]: 5.3 µM | Kd [5]: 3.5 µM | IC50 (Protein polybromo-1 [6]): 3.1 µM | Kd (Protein polybromo-1 [7]): 0.58 µM | IC50 [3]: > 100 µM | Kd [8]: 0.34 µM | Kd (Protein polybromo-1 [9]): 0.17 µM | Kd [10]: 0.51 µM | IC50 [11]: 4.3 µM

Nc1nnc(-c2ccccc2)cc1-c1ccccc1
IC50 [4]: 57.1 µM | Kd (Protein polybromo-1 [7]): 27 µM | IC50 [3]: > 100 µM | Kd [8]: 4.4 µM | Kd (Protein polybromo-1 [9]): 5.7 µM | Kd [10]: 10 µM

CC(=O)N1CCN(c2cc(-c3ccccc3O)nnc2N)C[C@H]1C
fraction unbound [12]: 0.31 | IC50 (Cytochrome P450 2D6): > 10 µM | IC50 (Cytochrome P450 3A4): > 10 µM | IC50 (Cytochrome P450 2C9): > 10 µM | solubility kinetic [1]: 120 µM (≈ 39.3 µg/mL) | IC50 (Cytochrome P450 2C8): > 10 µM | Tmax [13]: 30 min | logD [2]: 2 | IC50 (Cytochrome P450 1A2): > 10 µM | clearance [14]: 16 mL/min/kg | fraction unbound [15]: 0.31 | IC50 [3]: 34 µM | CL free [16]: 52 mL/min/kg | Vduss [17]: 3.2 L/kg | fraction unbound [18]: 0.41 | Cmax [19]: 1000 nM | bioavailability [20]: 59% | Vd [21]: 1 L/kg | IC50 (Cytochrome P450 2C19): > 10 µM | half-life [22]: 66 min | fraction unbound [23]: 0.24
